Source: patent publication US20220205982A1 (CHILDREN'S HOSPITAL MEDICAL CENTER, priority 2019, published 2022)
“And” between values parts separate entries of the source, which are not always exact repeats. Equal entries are not always repeated. Where two headings read alike, the source gives them in different places.

How the values were obtained:
[1] = Melphalan test dose and full dose pharmacokinetics in patients undergoing RIC allogeneic HCT for non-malignant disorders (Bayesian analysis of plasma concentrations); assay type: in vivo, human; conditions: for AUC: human, plasma, intravenous; for Distribution of AUC (h * μg/mL): 3.5-≤6.5 / Distribution of AUC (h * μg/mL): <3.5 / Distribution of AUC (h * μg/mL): >6.5: share of transplants
Procedure: Patients undergoing allogeneic HCT for non-malignant disorders with a uniform RIC regimen that included alemtuzumab, fludarabine and melphalan were enrolled in this study. Full standard dose of melphalan was set as follows: • 140 mg/m^2 in patients having a body weight >10 kg, • 4.7 mg/kg in patients having a body weight <10 kg, and • 70 mg/m^2 in one patient with a radio sensitivity disorder.
The patients were given a test dose of melphalan (10% of the standard full dose) prior to start of their preparative regimen. Test dose of 10% of the full standard dose was determined to be the lowest dose level that would be measurable for a sufficiently long time interval (0-4h) to allow reliable AUC estimation. Accordingly, the test doses used in this study were 14 mg/m^2, 7 mg/m^2 and 0.47 mg/kg for patients having the standard full doses of 140 mg/m^2, 70 mg/m^2 and 4.7 mg/kg, respectively.
Blood samples were obtained for PK measurement after the administration of test dose and the full standard dose of melphalan. A total of 10 blood samples were obtained around each dose of melphalan: at baseline (5-10 min prior to start of the melphalan infusion of) and then approximately at 5 min, 15 min, 30 min, 45 min, 60 min, 2 hour, 2.5, 4, and 6 hours after the end of the melphalan infusion. Samples were collected on ice and transported to the institution's mass spectrometry laboratory for instant analysis by PS-MS/MS and conventional LC-MS/MS. Patient data collected for analysis included baseline organ function, presence of oral and gastrointestinal mucositis, renal and liver dysfunction including VOD, initial donor chimerism, graft rejection, and acute and chronic GVHD (aGVHD and cGVHD). The Common Terminology Criteria for Adverse Events (CTCAE) version 4.0 was used to evaluate adverse events. Acute and chronic GVHD were assessed by standardized published criteria. See, e.g., Glucksberg H, et al. Transplantation. 1974; 18:295-304 and Filipovich A H, et al. Biol Blood Marrow Transplant. 2005; 11:945-956. Interim analyses were completed after enrollment of 5 patients and 10 patients respectively to validate data following 25% and 50% of intended total patient enrollment. The AUC range that led to full donor chimerism without excess toxicity in majority of patients was selected to be the desired target AUC for full dose adjustment. In patients with baseline impaired organ function, personalized full dose melphalan was adjusted to limit toxicity if test dose PK predicted standard full dose AUC was higher than the desired target AUC range.
Melphalan levels were measured by validated PS-MS/MS and LC-MS\MS methods (Mirkou A, etc., J Chromatogr B Analyt Technol Biomed Life Sci. 2009; 877:3089-3096). For the PS-MS/MS method, all samples were analyzed using an automated Paper Spray ion source (Prosolia, Inc. Indianapolis, Ind.) interfaced with a TSQ Quantum Ultra mass spectrometer (Thermo Scientific, San Jose, Calif.) operated in selected reaction monitoring (SRM) mode. XCalibur software was used to control the MS and to process data. Specific precursor/product ions were simultaneously monitored for melphalan and its stable isotopically-labelled internal standard (D8-melphalan) by collision-induced dissociation (CID). Blood samples were prepared by spiking known amounts of melphalan standards and the internal standard into drug free human blood to establish a calibration curve and quality control samples. A small amount of patient's blood […] equilibrated with D8-melphalan solution was deposited on the Paper Spray cartridge and dried. A small volume of solvent optimized to efficiently extract the drug was applied to the paper. A stepwise high voltage (3-5 kV) was then applied inducing an electrospray ionization at the tip of the paper; the solvent evaporates from the droplets generating gas phase ions of the analyte, which then can be detected by a mass spectrometer. […]

[2] = cited from earlier work
[3] = a 4-month infant, normal renal and liver function for age
[4] = median and range, 16 patients with normal organ function
[5] = median and range, 17 patients who received standard full dose
[6] = median and range, patients <10 kg, normal organ function, n=5, dose 0.47 mg/kg, 0.47 mg/kg
[7] = median and range, patients >10 kg, normal organ function, n=11, dose 14 mg/m^2
[8] = median and range, six patients (7 transplants) with impaired organ function, adjusted full dose
[9] = median, PK-adjusted full dose, N = 6 (7)

N[C@@H](Cc1ccc(N(CCCl)CCCl)cc1)C(=O)O [melphalan, 4-[Bis(2-chloroethyl)amino]-L-phenylalanine]
test dose clearance [1, 3]: 15.7 L/h/70 kg
test dose predicted full dose AUC [1, 3]: 11.1 µg·h/mL
AUC ([1]; 0.44 mg/kg, sixth patient, initial HCT, full dose 0.44 mg/kg (9.3% of standard dose), read-out: AUC achieved): 1.1 µg·h/mL
AUC ([1]; 0.47 mg/kg, median and range, patients <10 kg, normal organ function, n=5, dose 0.47 mg/kg, read-out: test dose AUC): 0.56 µg·h/mL
AUC ([1]; 1.2 mg/kg, sixth patient, second HCT, full dose 1.2 mg/kg (25.5% of standard dose), read-out: actual observed AUC): 3.9 µg·h/mL
AUC ([1]; 4.7 mg/kg, infant who developed VOD, read-out: full dose melphalan AUC): 6.9 µg·h/mL
AUC ([1]; 4.7 mg/kg, median and range, patients <10 kg, standard dose 4.7 mg/kg, n=6, read-out: full dose AUC): 4.8 µg·h/mL
AUC ([1]; 14 mg/m2, median and range, patients >10 kg, normal organ function, n=11, dose 14 mg/m^2, read-out: test dose AUC): 0.52 µg·h/mL
AUC ([1]; 70 mg/m^2, patient with VOD and diffuse alveolar hemorrhage, ataxia telangiectasia, read-out: full dose melphalan AUC): 5 µg·h/mL
AUC ([1]; 140 mg/m2, median and range, patients >10 kg, standard dose 140 mg/m2, n=11, read-out: full dose AUC): 5.5 µg·h/mL
AUC ([1]; 140 mg/m2, patient with grade 4 mucositis and gastrointestinal bleeding, read-out: full dose AUC (highest melphalan exposure)): 9.5 µg·h/mL
AUC ([1]; five patients, adjusted full dose 29% to 70% of standard dose, read-out: actual observed AUC with the adjusted dose): 3.6 to 5.4 µg·h/mL
AUC ([1]; median and range, 16 patients with normal organ function, read-out: test dose AUC): 0.55 µg·h/mL
AUC ([1]; median and range, 17 patients who received standard full dose, read-out: full dose AUC): 5.5 µg·h/mL
AUC ([1]; median and range, six patients (7 transplants) with impaired organ function, adjusted full dose, read-out: test dose AUC): 0.84 µg·h/mL
AUC ([1]; median in the 12/17 (70.6%) patients with AUC between 3.5 and 6.5, read-out: full dose AUC): 5.2 µg·h/mL
AUC ([1]; median, PK-adjusted full dose, N = 6 (7), read-out: Full dose AUC): 3.9 µg·h/mL
AUC ([1]; median, PK-adjusted full dose, N = 6 (7), read-out: Test dose AUC): 0.84 µg·h/mL
AUC ([1]; median, Standard full dose, N = 16 (16), read-out: Test dose AUC): 0.55 µg·h/mL
AUC ([1]; median, Standard full dose, N = 17 (17), read-out: Full dose AUC): 5.5 µg·h/mL
AUC ([1]; median, Total, N = 22 (23), read-out: Test dose AUC): 0.59 µg·h/mL
AUC ([1]; median, Total, N = 23 (24), read-out: Full dose AUC): 5 µg·h/mL
AUC ([1]; patient with normal organ function who developed grade 4 gastrointestinal mucositis, read-out: full dose AUC): 9.5 µg·h/mL
AUC ([1]; patients with impaired organ function, adjusted full dose, read-out: observed AUC based on the test dose PK guided adjustment): 3.9 ± 1.4 µg·h/mL
AUC ([1]; full dose melphalan, RIC HCT for non-malignant disorders, read-out: AUC range well tolerated without excess toxicity and sufficient to facilitate engraftment with full donor chimerism): 3.5 to 6.5 µg·h/mL
FCLstd (body weight normalized clearance by allometric scaling) ([1]; individual patients, full dose): 27.4 L/h/70 kg and 46.9 L/h/70 kg and 43.1 L/h/70 kg and 66.8 L/h/70 kg and 30.2 L/h/70 kg and 59.4 L/h/70 kg and 62.8 L/h/70 kg and 38.9 L/h/70 kg and 18.6 L/h/70 kg and 38.3 L/h/70 kg and 42.7 L/h/70 kg and 18.8 L/h/70 kg and 33.9 L/h/70 kg and 38.0 L/h/70 kg and 29.4 L/h/70 kg and 15.1 L/h/70 kg and 25.0 L/h/70 kg and 12.3 L/h/70 kg and 43.5 L/h/70 kg and 36.9 L/h/70 kg and 19.7 L/h/70 kg and 50.6 L/h/70 kg and 34.5 L/h/70 kg
Predicted FAUC (test dose PK evaluation) ([1]; individual patients, full dose AUC predicted from test dose PK): 2.9 mg · h/L and 6.5 mg · h/L and 5.9 mg · h/L and 5.1 mg · h/L and 5.2 mg · h/L (3×) and 5.7 mg · h/L (2×) and 14.0 mg · h/L and 14.5 mg · h/L and 7.2 mg · h/L and 5.6 mg · h/L and 4.8 mg · h/L and 6.1 mg · h/L and 5.5 mg · h/L and 11.6 mg · h/L and 11.1 mg · h/L and 16.8 mg · h/L and 7.1 mg · h/L and 13.8 mg · h/L and 4.4 mg · h/L and 7.4 mg · h/L
TCLstd (test dose body weight normalized clearance by allometric scaling) ([1]; individual patients, test dose): 47.3 L/h/70 kg and 44.0 L/h/70 kg and 38.8 L/h/70 kg and 56.2 L/h/70 kg and 52.2 L/h/70 kg and 47.8 L/h/70 kg and 49.5 L/h/70 kg and 12.1 L/h/70 kg and 45.2 L/h/70 kg and 18.5 L/h/70 kg and 33.1 L/h/70 kg and 27.5 L/h/70 kg and 33.9 L/h/70 kg and 27.0 L/h/70 kg and 32.3 L/h/70 kg and 13.6 L/h/70 kg and 15.7 L/h/70 kg and 11.3 L/h/70 kg and 35.9 L/h/70 kg and 49.6 L/h/70 kg and 19.2 L/h/70 kg and 67.1 L/h/70 kg and 32.8 L/h/70 kg
predicted AUC for standard full dose melphalan [1, 4]: 2.9 to 11.1 µg·h/mL and 5.5 µg·h/mL
test dose AUC [1, 4]: 0.29 to 1.1 µg·h/mL
full dose AUC [1, 5]: 3.0 to 9.5 µg·h/mL
full dose clearance [1, 5]: 38.3 L/h/70 kg and 25.0-66.8 L/h/70 kg
test dose AUC [1, 6]: 0.48 to 1.11 µg·h/mL
test dose clearance [1, 6]: 27.6 L/hr./70 kg and 15.7-34.0 L/hr./70 kg
full dose AUC ([1]; median and range, patients <10 kg, standard dose 4.7 mg/kg, n=6, 4.7 mg/kg): 3.0 to 6.9 µg·h/mL
test dose AUC [1, 7]: 0.29 to 0.72 µg·h/mL
test dose clearance [1, 7]: 47.8 L/h/70 kg and 33.1-67.2 L/h/70 kg
full dose AUC ([1]; median and range, patients >10 kg, standard dose 140 mg/m2, n=11): 4.1 to 9.5 µg·h/mL
test dose PK predicted AUC for standard full dose ([1]; median and range, six patients (7 transplants) with impaired organ function): 13.8 µg·h/mL and 11.1 to 16.4 µg·h/mL
test dose AUC [1, 8]: 0.7 to 1.45 µg·h/mL
test dose clearance [1, 8]: 18.5 L/hr./70 kg and 11.3-35.9 L/hr./70 kg
Test dose PK predicted full close AUC ([1]; median, PK-adjusted full dose): 13.8 µg·h/mL
Full dose CL [1, 9]: 18.8 L/h/70 kg
Test dose CL [1, 9]: 45.2 L/h/70 kg
Test dose PK predicted full close AUC ([1]; median, Standard full dose): 5.7 µg·h/mL
Test dose CL ([1]; median, Standard full dose, N = 16 (16)): 18.5 L/h/70 kg
Full dose CL ([1]; median, Standard full dose, N = 17 (17)): 38.3 L/h/70 kg
Test dose PK predicted full close AUC ([1]; median, Total): 5.9 µg·h/mL
Test dose CL ([1]; median, Total, N = 22 (23)): 33.9 L/h/70 kg
Full dose CL ([1]; median, Total, N = 23 (24)): 37.4 L/h/70 kg
full dose AUC if given standard full dose ([1]; patients with impaired organ function, predicted from test dose PK): 11.0 ± 3.6 µg·h/mL
Distribution of AUC (h * μg/mL): 3.5-≤6.5 ([1]; PK-adjusted full dose): 85.7%
Distribution of AUC (h * μg/mL): <3.5 ([1]; PK-adjusted full dose): 14.3%
Distribution of AUC (h * μg/mL): >6.5 ([1]; PK-adjusted full dose): 0.0%
Distribution of AUC (h * μg/mL): 3.5-≤6.5 ([1]; Standard full dose): 70.6%
Distribution of AUC (h * μg/mL): <3.5 ([1]; Standard full dose): 5.9%
Distribution of AUC (h * μg/mL): >6.5 ([1]; Standard full dose): 23.5%
Distribution of AUC (h * μg/mL): 3.5-≤6.5 ([1]; Total): 75.0%
Distribution of AUC (h * μg/mL): <3.5 ([1]; Total): 8.3%
Distribution of AUC (h * μg/mL): >6.5 ([1]; Total): 16.7%
inter-patient variability in melphalan exposure ([2]; adults undergoing autologous HCT for multiple myeloma): up to 5 fold
contribution of renal elimination to melphalan clearance ([2]; in vivo): low
penetration into cerebrospinal fluid (CSF) ([2]; in vivo): low
steady-state volume of distribution ([2]; in vivo): about 0.5 L/kg
